Test results as given in PMC5385157 (Neuropharmacology, 2016).
Where “and” joins values, the source holds several entries; their conditions need not be identical. Equal entries are not always repeated. Where two headings read alike, the source gives them in different places. Values belong to the compound of their own block, whether it stands above or below them.

Tests used:
human α2AAR = details: ref NIMH Psychoactive Drug Screening Program (PDSP) Ki Database, cited from earlier work
[1] = clinical blood plasma level; ref Baldessarini and Tarazi (2006); cited from earlier work
HA-α2AAR [2] = biological target: T1, HA-α2AAR (Mus musculus, UniProt Q01338); details: 1 µM, 30 min
T1 sequence (Q01338 1-465): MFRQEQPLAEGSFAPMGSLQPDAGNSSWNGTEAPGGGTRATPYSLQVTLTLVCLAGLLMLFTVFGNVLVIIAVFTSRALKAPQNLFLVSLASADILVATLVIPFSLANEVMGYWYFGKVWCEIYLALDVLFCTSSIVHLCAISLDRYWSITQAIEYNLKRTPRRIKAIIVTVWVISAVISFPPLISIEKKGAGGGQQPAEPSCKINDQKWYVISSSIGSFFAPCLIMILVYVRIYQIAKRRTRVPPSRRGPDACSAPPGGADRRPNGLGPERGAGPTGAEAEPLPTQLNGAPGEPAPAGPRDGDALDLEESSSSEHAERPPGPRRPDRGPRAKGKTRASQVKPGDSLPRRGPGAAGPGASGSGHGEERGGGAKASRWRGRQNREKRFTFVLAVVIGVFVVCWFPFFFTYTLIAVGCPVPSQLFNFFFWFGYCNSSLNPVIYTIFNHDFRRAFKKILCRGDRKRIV

HA-α2AAR [3] = biological target: T1, HA-α2AAR; details: 1 µM
α2AAR/Arr3 interaction = α2AAR/Arr3 interaction (Mus musculus, UniProt Q01338); details: 1 µM, live HEK 293 cells
α2AAR/Arr3 interaction, sequence (P32121 whole entry partner, one chain of several): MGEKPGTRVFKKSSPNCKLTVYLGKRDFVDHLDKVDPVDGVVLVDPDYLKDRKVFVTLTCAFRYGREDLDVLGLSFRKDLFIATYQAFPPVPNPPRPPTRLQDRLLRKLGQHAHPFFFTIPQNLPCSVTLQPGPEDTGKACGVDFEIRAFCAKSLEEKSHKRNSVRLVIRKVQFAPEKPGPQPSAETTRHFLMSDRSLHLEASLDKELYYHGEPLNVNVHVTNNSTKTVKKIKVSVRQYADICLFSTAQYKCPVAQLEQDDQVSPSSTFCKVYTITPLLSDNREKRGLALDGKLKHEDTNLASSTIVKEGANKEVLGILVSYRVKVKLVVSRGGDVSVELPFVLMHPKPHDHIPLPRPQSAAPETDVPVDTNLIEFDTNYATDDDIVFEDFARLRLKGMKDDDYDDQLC

[4] = test system: α2AAR-mediated activation of the ERK1/2 MAP kinase pathway; assay: Western blot for phospho-ERK1/2 in WT MEF cells; type: cell-based, murine; details: 1 µM
α2AAR = biological target: T2, α2AAR (Mus musculus, UniProt Q01338); assay: cAMP assay; type: cell-based, murine; details: ligand 10 µM, 10 µM forskolin, 20 min
T2 sequence (Q01338 1-465): T1 sequence (Q01338 1-465)

α2AAR endocytosis (intracellular punctae) (HA-α2AAR [2]): robust α2AAR endocytosis | receptor loss from the cell surface (HA-α2AAR [3]; WT MEF cells): ~30% | α2AAR endocytic response in arrestin-null (Arr2,3−/−) MEF cells (HA-α2AAR [3]; 5, 10, 30 min): lost | α2AAR/Arr3 interaction (FLIM-FRET efficiency) (α2AAR/Arr3 interaction): robust α2AAR/Arr3 interaction
SMILES: CN(C)CCCN1c2ccccc2Sc2ccc(Cl)cc21 [Chlorpromazine, chlorpromazine]
Ki (human α2AAR; read-out: Reported values at human α2AAR, Avg.): 251 nM | Ki (human α2AAR; read-out: Reported values at human α2AAR, Range): 78 to 558 nM | Therapeutic range [1]: 90 to 2350 nM

SMILES: CN1CCN(C2=Nc3cc(Cl)ccc3Nc3ccccc32)CC1 [Clozapine, clozapine]
ERK1/2 activation (pERK1/2) [4]: unable to detect any ERK1/2 activation

SMILES: OCCN1CCN(CCCN2c3ccccc3Sc3ccc(C(F)(F)F)cc32)CC1 [Fluphenazine, fluphenazine]
Therapeutic range [1]: 20–100 ng/ml and 50–230 nM

Gαi-mediated inhibition of cAMP production (α2AAR): ~50%
SMILES: NC[C@H](O)c1ccc(O)c(O)c1 [NE, norepinephrine]
